One data set concerns P388/ADR. The data set can be described thus: cells. Format: functional. The settings on record: Mus musculus.
In a further data set the test system is SN12K1. In words: cells. Format: functional. The settings on record: Homo sapiens.
For a further data set, the system named is P388. In words: cells. It counts as functional. Particulars: Mus musculus.
A further data set has as its target Cytochrome P450 2D6 (Homo sapiens, UniProt P10635).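 Further: CYP2D6 member of a cytochrome P450 panel assay.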
The next data set deals with T1, Cytochrome P450 1A2 (Homo sapiens, UniProt P05177).
T1 sequence (P05177 whole entry): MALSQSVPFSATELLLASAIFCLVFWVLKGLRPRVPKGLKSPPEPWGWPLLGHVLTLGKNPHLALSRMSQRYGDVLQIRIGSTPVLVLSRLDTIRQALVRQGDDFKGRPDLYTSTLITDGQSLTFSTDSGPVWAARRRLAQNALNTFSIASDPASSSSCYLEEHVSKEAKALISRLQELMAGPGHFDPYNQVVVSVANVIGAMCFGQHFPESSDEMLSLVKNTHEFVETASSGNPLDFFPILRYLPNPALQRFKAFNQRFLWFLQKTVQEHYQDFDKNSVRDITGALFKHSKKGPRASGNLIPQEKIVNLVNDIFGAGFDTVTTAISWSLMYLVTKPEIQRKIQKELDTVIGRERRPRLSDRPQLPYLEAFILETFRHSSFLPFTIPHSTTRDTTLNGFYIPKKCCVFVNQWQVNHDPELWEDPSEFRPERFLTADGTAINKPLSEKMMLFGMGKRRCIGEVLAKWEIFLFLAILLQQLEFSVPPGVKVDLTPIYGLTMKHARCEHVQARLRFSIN

Another data set has as its target Cytochrome P450 2C9 (Homo sapiens, UniProt P11712).
The next data set has as its target Cytochrome P450 3A4 (Homo sapiens, UniProt P08684).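 Further: CYP3A4 tested as one member of a cytochrome P450 panel screen.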
The next data set addresses T2, Leucine aminopeptidase (Plasmodium falciparum 3D7, UniProt Q8IL11).
T2 sequence (Q8IL11 whole entry): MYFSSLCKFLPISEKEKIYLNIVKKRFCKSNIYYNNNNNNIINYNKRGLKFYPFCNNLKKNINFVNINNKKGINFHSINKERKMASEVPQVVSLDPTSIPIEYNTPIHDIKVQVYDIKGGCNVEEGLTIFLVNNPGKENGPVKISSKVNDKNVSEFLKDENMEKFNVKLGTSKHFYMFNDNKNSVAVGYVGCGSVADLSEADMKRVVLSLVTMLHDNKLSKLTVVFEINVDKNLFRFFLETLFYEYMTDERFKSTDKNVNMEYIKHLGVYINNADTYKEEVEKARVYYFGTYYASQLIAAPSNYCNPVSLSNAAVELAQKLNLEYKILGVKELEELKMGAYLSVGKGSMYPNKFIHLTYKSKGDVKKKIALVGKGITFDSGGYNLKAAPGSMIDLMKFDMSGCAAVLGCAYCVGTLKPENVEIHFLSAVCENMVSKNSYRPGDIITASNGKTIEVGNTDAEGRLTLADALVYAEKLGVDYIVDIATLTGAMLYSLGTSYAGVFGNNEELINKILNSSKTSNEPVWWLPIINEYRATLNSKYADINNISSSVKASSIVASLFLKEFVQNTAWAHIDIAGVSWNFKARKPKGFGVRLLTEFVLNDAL
In words: P. falciparum M17LAP inhibitors, primary screen, biochemical, fluorogenic H-Leu-NHMec substrate, 1536-well (AID 1619). Format: functional.

The target of another data set is Large T antigen (Simian virus 40, UniProt P03070). It counts as functional, Betapolyomavirus macacae.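 Further: Confirmatory-stage PubChem screen for compounds that inhibit SV40 T antigen.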
For data set [1], the target named is T3, Rac GTPase-activating protein 1 (Homo sapiens, UniProt Q9H0H5).
T3 sequence (Q9H0H5 whole entry): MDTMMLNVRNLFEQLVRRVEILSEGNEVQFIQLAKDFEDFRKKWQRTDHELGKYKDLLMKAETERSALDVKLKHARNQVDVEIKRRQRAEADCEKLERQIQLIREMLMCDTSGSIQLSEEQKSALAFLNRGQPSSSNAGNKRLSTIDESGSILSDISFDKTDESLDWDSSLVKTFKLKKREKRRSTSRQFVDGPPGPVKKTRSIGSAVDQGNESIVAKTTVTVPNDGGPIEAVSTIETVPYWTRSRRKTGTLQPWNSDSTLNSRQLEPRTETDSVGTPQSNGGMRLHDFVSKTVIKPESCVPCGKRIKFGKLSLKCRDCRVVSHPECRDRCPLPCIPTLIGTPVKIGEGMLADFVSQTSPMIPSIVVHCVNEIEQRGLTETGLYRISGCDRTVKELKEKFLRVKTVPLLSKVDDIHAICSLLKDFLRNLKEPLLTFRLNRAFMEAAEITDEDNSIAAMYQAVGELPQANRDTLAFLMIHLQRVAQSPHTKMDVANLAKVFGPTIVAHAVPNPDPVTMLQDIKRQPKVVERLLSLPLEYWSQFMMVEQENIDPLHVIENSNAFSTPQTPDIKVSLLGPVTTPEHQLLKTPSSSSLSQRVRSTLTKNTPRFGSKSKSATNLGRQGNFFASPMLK
In words: MgcRacGAP GTPase-activating activity inhibitors, confirmation, biochemical, ADP Hunter fluorescence, primary and confirmatory (AID 624330). It counts as functional.

The target in data set [2] is T4, Replicative DNA helicase DnaB (Mycobacterium tuberculosis, UniProt P9WMR3).
T4 sequence (P9WMR3 whole entry): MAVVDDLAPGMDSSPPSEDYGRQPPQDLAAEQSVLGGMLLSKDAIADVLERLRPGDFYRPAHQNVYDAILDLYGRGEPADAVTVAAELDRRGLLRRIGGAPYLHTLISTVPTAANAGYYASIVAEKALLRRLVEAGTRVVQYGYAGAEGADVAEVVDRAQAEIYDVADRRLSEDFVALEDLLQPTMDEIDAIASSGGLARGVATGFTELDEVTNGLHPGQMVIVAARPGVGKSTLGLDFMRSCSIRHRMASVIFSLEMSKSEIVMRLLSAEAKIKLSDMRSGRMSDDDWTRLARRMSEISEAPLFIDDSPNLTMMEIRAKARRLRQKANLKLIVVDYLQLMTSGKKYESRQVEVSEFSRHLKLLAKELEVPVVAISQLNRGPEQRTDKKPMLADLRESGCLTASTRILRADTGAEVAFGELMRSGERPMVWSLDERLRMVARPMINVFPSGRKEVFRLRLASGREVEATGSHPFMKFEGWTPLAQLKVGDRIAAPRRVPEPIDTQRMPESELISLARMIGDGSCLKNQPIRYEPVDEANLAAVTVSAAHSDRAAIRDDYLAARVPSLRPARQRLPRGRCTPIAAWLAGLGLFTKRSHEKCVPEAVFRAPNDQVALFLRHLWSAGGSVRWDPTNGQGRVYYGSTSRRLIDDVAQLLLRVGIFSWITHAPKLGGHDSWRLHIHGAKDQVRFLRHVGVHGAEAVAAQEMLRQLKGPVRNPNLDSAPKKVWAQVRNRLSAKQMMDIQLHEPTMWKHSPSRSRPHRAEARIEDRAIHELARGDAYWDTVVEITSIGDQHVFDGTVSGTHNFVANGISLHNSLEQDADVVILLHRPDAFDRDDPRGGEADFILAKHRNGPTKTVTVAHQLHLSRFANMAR
The data set can be described thus: DnaB intein splicing inhibitors, dose response, biochemical, cell-free fluorescence (AID 449749). Format: functional.

A further data set has as its target T5, Protein RecA (Mycobacterium tuberculosis, UniProt P9WHJ3).
T5 sequence (P9WHJ3 whole entry): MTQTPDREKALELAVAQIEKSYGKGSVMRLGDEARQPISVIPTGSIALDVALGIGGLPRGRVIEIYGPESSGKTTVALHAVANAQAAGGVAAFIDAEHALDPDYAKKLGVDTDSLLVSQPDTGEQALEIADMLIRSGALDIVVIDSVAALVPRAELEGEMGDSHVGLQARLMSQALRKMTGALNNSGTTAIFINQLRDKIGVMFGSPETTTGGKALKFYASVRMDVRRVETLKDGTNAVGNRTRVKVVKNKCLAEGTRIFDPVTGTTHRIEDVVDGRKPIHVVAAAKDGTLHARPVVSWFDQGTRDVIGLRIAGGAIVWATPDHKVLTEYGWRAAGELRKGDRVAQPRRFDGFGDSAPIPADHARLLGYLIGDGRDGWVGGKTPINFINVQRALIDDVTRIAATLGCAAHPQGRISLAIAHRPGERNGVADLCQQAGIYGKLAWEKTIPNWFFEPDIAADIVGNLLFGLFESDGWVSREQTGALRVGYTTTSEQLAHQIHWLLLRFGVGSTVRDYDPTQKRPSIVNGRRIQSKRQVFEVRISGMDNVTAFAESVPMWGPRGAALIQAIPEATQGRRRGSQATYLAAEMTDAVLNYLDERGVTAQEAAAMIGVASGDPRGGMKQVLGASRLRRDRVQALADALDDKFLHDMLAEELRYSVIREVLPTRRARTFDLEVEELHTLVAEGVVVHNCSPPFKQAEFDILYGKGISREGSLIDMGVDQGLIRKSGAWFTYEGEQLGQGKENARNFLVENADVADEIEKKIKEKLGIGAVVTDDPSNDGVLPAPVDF
In words: Fluorescence Cell-Free Homogeneous Dose Retest to Identify Inhibitors of RecA-Intein Splicing Activity. [Related pubchem assays (depositor defined):AID2097, AID2223, AID489010, AID492950]. It counts as functional.

For the next data set, the target named is Cytochrome P450 2C19 (Homo sapiens, UniProt P33261). The data set can be described thus: Cytochrome panel assay with activity outcomes. Panel member name: p450-cyp2c19 Compounds with AC50 equal or less than 10 uM are considered active. Format: functional. Particulars: read-out: AC50.

The record followed here is ChEMBL document CHEMBL1201862, “PubChem BioAssay data set” (2004).

Active and inactive are the calls of the source. Some results are limits rather than exact numbers.

Cytochrome P450 2C9, sequence (P11712 whole entry): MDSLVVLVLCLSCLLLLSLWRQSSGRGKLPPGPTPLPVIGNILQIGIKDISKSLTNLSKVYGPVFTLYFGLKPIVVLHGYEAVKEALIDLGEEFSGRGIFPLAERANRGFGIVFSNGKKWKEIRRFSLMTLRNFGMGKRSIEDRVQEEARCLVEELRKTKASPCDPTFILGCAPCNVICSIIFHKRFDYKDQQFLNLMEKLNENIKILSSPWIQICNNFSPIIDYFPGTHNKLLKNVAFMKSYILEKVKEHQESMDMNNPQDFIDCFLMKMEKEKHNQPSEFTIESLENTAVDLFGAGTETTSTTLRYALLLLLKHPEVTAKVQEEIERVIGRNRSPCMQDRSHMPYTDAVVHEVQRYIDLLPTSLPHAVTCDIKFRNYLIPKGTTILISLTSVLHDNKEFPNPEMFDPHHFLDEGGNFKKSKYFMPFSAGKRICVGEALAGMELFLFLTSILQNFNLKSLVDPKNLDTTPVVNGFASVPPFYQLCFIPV
Cytochrome P450 2D6, sequence (P10635 whole entry): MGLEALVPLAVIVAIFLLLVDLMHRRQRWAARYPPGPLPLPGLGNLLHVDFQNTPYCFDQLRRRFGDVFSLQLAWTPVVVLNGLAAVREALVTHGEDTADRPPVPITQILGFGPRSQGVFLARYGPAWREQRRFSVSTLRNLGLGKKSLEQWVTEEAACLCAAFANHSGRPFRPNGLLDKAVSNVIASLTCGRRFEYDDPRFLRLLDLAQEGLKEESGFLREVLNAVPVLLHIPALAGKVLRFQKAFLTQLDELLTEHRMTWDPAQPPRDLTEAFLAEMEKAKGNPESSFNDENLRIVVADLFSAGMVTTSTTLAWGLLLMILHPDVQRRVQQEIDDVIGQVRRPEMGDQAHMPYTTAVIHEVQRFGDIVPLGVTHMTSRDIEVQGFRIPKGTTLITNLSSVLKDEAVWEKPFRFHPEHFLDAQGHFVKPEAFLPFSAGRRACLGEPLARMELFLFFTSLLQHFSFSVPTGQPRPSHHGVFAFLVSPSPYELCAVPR
Cytochrome P450 2C19, sequence (P33261 whole entry): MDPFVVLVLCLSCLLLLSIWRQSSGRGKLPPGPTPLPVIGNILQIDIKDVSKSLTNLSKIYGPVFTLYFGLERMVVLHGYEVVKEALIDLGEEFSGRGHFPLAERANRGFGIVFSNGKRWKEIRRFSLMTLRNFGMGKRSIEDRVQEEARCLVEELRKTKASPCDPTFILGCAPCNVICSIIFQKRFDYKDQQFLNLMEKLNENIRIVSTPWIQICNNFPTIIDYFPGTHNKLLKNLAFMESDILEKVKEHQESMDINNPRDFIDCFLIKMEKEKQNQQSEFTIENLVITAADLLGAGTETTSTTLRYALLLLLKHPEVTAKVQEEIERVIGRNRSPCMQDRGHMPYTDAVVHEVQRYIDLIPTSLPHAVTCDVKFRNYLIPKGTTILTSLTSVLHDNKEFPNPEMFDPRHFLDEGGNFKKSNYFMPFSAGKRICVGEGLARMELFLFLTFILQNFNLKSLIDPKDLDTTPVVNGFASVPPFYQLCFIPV
Large T antigen, sequence (P03070 whole entry): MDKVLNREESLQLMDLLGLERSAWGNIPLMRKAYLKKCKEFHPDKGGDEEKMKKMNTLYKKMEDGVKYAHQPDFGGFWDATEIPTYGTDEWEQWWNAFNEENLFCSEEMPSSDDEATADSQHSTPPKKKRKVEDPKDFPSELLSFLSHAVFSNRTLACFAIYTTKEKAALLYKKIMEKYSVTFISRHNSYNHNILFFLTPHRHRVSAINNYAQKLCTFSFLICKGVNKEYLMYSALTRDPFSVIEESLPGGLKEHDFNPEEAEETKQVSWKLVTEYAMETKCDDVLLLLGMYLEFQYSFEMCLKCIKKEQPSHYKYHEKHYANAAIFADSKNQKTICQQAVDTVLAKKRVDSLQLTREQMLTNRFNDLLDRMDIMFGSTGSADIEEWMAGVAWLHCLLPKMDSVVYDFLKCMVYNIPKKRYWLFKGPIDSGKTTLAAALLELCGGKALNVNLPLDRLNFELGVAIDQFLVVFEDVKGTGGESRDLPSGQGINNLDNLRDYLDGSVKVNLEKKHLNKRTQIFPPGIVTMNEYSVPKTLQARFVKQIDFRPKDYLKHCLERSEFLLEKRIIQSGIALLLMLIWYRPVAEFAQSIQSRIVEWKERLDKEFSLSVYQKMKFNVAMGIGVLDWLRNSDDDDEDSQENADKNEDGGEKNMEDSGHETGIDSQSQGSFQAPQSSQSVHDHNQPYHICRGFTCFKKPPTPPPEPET
Cytochrome P450 3A4, sequence (P08684 whole entry): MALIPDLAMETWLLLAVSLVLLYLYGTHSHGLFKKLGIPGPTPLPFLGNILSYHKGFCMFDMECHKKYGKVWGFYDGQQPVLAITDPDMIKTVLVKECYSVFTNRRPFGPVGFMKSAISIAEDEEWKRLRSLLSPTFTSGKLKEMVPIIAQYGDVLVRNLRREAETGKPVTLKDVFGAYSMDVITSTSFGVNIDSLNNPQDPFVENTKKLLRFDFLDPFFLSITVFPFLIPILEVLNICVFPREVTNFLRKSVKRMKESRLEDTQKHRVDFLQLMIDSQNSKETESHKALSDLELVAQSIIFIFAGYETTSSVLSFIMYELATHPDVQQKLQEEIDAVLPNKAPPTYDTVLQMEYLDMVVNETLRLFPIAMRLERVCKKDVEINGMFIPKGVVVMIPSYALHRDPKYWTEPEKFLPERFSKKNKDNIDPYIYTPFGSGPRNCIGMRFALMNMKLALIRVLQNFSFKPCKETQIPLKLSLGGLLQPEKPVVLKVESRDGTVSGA

`NC(Cc1c[nH]c2ccccc12)C(=O)O` (stereo not drawn) [DL-TRYPTOPHAN]: the GI50 in the data set with P388/ADR is > 300 µM (inactive); with SN12K1, > 300 µM (inactive); with P388, 269 µM (inactive).

For the compound `CCCCCCCCCCCCCCCCCC(=O)NC[C@@H](COP(=O)([O-])OCC[N+](C)(C)C)OCC`, the AC50 is 39.8 µM (inconclusive) on Cytochrome P450 2D6, 39.8 µM (inconclusive) on Cytochrome P450 1A2 and “inconclusive” on Cytochrome P450 2C9.

As for `CC[C@](O)(C(=O)O)c1cc2n(c(=O)c1CO)Cc1cc3ccccc3nc1-2`, the GI50 with P388/ADR is 0.03 µM (active); in the data set on SN12K1, 0.209 µM (active); with P388, 0.025 µM (active).

As to `Cc1ccccc1C(=O)NN(C)c1nc2ccccc2nc1C(F)(F)F`, the values for the AC50 on Cytochrome P450 3A4 and at Cytochrome P450 2C9 were 7.08 µM (inconclusive) and “inconclusive”, respectively.

For the compound `CCc1ccccc1N1CCN(C(=O)c2cc(OC)c(OC)c(OC)c2)CC1`, the results for the GI50 in the data set with P388/ADR, in the data set with SN12K1 and in the data set with P388 were 0.119 µM (active), 0.0614 µM (active) and 0.0395 µM (active), respectively.

Take `O=C1C2C3C=CC(CC3)C2C(=O)N1/N=C/c1ccc(O)c(O)c1` (stereo unspecified): the IC50 on Leucine aminopeptidase was 34.3 µM (active); at Large T antigen, 4.4 µM (active); in data set [1], 74 µM (active).

Regarding `CCn1c(SC)nnc1C1CCN(S(=O)(=O)c2ccc(OC)cc2)CC1`, the AC50 at Cytochrome P450 2D6 is 8.91 µM (inconclusive); on Cytochrome P450 2C9, “inconclusive”.

`Nc1n[nH]c(N)n1` [GUANAZOLE]: the values for the GI50 in the data set on P388/ADR, in the data set with SN12K1 and with P388 were 1060 µM (inactive), 2830 µM (inactive) and 728 µM (inactive), respectively.

On to `Cc1ccc(-c2n[nH]c3c2C(C)C(C#N)=C(N)O3)cc1` (stereo unspecified), for which, on Leucine aminopeptidase, the IC50 is 16.3 µM (active). In data set [2], the AC50 was > 380 µM (inconclusive). Further, the EC50 at Protein RecA is 518 nM (active).

As for `COCCO` [2-METHOXYETHANOL], the GI50 with P388/ADR, in the data set on SN12K1 and in the data set on P388 was > 100 µM (inactive) each time.

As for `CS(=O)(=O)Nc1cccc(-c2cc(Nc3ccccc3)ncn2)c1`, the AC50 is 31.6 µM (inconclusive) on Cytochrome P450 2C19, 25.1 µM (inconclusive) on Cytochrome P450 2D6 and “inconclusive” at Cytochrome P450 2C9.

As for `NC1CCCCC1`, the GI50 is 243 µM (inactive) with SN12K1 and 92.9 µM (inactive) with P388.

Take `COc1ccc(CNc2nc(-c3ccccc3CN(C)C)nc3ccccc23)c(OC)c1`: the AC50 is 15.8 µM (inconclusive) at Cytochrome P450 2C19 and “inconclusive” at Cytochrome P450 2C9.

`CC1[C@@H]2CC=C3C4CCC5Cc6nc7c(nc6C[C@@]5(C)C4CC(=O)[C@]32CO[C@@]1(O)C(O)CC(C)(C)O)CC1CCC2C3=C[C@H]4O[C@@]5(O[C@@](C)(CO)C[C@@H]5O)C(C)[C@@]4(O)[C@]3(C)[C@@H](O)CC2[C@]1(C)C7` (stereo partly specified): the GI50 is 0.0105 µM (active) in the data set with P388/ADR, < 0.00036 µM (active) with SN12K1 and < 0.00036 µM (active) in the data set with P388.

As to `CC(=O)[C@H]1CCC2[C@@H]3CC=C4C(O)C(OS(=O)(=O)O)CC[C@]4(C)C3CC[C@@]21C` (stereo partly specified), the GI50 with P388/ADR, in the data set with SN12K1 and in the data set with P388 was > 100 µM (inactive) each time.

What is called GI50 is the concentration at which growth is held to half of that of the control. What is called AC50 is the concentration at which the activity in the assay is half-maximal. The term IC50 denotes the concentration at which inhibition is half-maximal. The EC50 is the concentration that produces a half-maximal response.
